The values below come from patent US8912184B1, “Therapeutic and diagnostic methods” (Alzheimer's Institute of America, Inc., priority 2010, dated 2014).

pIC50: −log10 of the molar value.

Test [1] relates to HCT116 cells. Kind of test: 72 Hour HCT116 Cytotoxicity Assay (CellTiter-Glo). Format: cell-based. As to conditions: Homo sapiens, HCT-116, 72 h, 72 hours; read-out: HCT116 cell cytotoxicity IC50. (ATP-based viability assays read luminescence as a measure of living cells.)
Description: HCT116 cells were seeded in 96 well plates (Greiner Bio-One, Monroe, N.C.) and allowed to settle overnight. Test compound dissolved in dimethyl sulfoxide (DMSO) was added and drug incubation proceeded for 72 hours. […] After 72 hour, 50 μL of CellTiter-Glo Luminescent Cell Viability Assay reagent (Promega Corporation, Madison, Wis.) was added to cells in 200 μL of cellular media. After a proscribed incubation period, luminescence was measured using a TopCount NXT plate reader (PerkinElmer, Waltham, Mass.).
The subject of test [2] is HCT116 cells. The experiment in a line: Nicotinic Acid Rescue Cytotoxicity Assay, first method: cytotoxicity to HCT116 cells in presence and absence of 10 μM nicotinic acid. Format: cell-based. As to conditions: Homo sapiens, HCT-116, 72 h.
Setting [3] is: absence of nicotinic acid, read-out: HCT116 72 h cytotoxicity.
Setting [4] is: presence of 10 μM nicotinic acid, read-out: HCT116 72 h cytotoxicity with 10 μM Nicotinic Acid.

For `O=C(NCCCNS(=O)(=O)c1ccccc1-c1ccccc1)NCc1cccnc1` [Example 152, N-(3-{[(pyridin-3-ylmethyl)carbamoyl]a-mino}propyl)biphenyl-2-sulfonamide], in the test on HCT116 cells [1], the pIC50 was around 7.26. On the same count and under the same terms, then `O=C(NCc1cccnc1)Nc1ccc(COc2cc(C(F)(F)F)ccc2Cl)cc1` [Example 164, 1-(4-{[2-Chloro-5-(trifluorometh-yl)phenoxy]meth-yl}phenyl)-3-(pyridin-3-ylmethyl)urea], with around 7.13; and `O=C(NCc1cccnc1)Nc1ccc(C[S+]([O-])c2ccccc2-c2ccccc2)cc1` (centres unmarked) [Example 210, 1-{4-[(biphenyl-2-ylsulfinyl)meth-yl]phenyl}-3-(pyridin-3-ylmethyl)urea], with around 7.41; and `N#C/N=C(/NCc1ccc(COc2ccccc2-c2ccccc2)cc1)Nc1ccncc1` [Example 605, 1-{4-[(Biphenyl-2-yloxy)methyl]benzyl}-2-cyano-3-pyridin-4-ylguanidine], with around 8.96.

On to `O=C(NCc1cccnc1)Nc1ccc(NS(=O)(=O)c2ccc(F)cc2Br)cc1` [Example R62, 2-bromo-4-fluoro-N-(4-{[(pyridin-3-ylmethyl)carbamoyl]amino}phenyl)benzene-sulfonamide], for which the pIC50 in the test with HCT116 cells [2] (setting [3]) was 7.89; in the test on HCT116 cells [2] (setting [4]), below 6.00. On the same counts, the results for `O=C(NCc1cccnc1)Nc1ccc(NS(=O)(=O)c2ccccc2-c2ccsc2)cc1` [Example R63, N-(4-{[(pyridin-3-ylmethyl)carbamoyl]amino}phenyl)-2-(thiophen-3-yl)benzenesulfonamide] are 8.80 and below 5.00. On the same counts, the results for `O=C(NCc1cccnc1)Nc1ccc(COc2ccccc2-c2ccccc2)cc1` [Example R64, 1-{4-[(Biphenyl-2-yloxy)methyl]phenyl}-3-(pyridin-3-ylmethyl)urea] are 9.70 and below 5.00. The matching figures for `O=C(NCc1ccc(NS(=O)(=O)c2ccccc2-c2ccccc2)cc1)Nc1ccncc1` [Example R65, N-(4-{[(pyridin-4-ylcarbamoyl)amino]methyl}phenyl)biphenyl-2-sulfonamide]: 9.30 and below 6.00. On to `N#C/N=C(\NCCCNS(=O)(=O)c1ccccc1-c1ccccc1)Nc1ccncc1` [Example R66, N-{3-[N″-cyano-N′-(pyridin-4-yl)carbamimidamido]propyl}biphenyl-2-sulfonamide], for which the results for the pIC50 in the test on HCT116 cells [2] (setting [3]) and in the test with HCT116 cells [2] (setting [4]) were 8.89 and 5.30, respectively.

Regarding `O=C(NCc1cccnc1)Nc1ccc(NS(=O)(=O)c2cc(C(F)(F)F)ccc2C(F)(F)F)cc1` [Example R67], the pIC50 was 9.52 in the test on HCT116 cells [2] (setting [3]) and below 6.00 with HCT116 cells [2] (setting [4]). On to `O=C(NCc1cccnc1)Nc1ccc(NS(=O)(=O)c2ccc(F)cc2-c2ccccc2)cc1` [Example R68, 5-fluoro-N-(4-{[(pyridin-3-ylmethyl)carbamoyl]amino}phenyl)biphenyl-2-sulfonamide], for which the pIC50 with HCT116 cells [2] (setting [3]) is 8.68; in the test with HCT116 cells [2] (setting [4]), below 5.30. Take `O=C(NCc1cccnc1)Nc1ccc(NS(=O)(=O)c2cc(C(F)(F)F)ccc2Cl)cc1` [Example R69, 2-chloro-N-(4-{[(pyridin-3-ylmethyl)carbamoyl]amino}phenyl)-5-(trifluoromethyl)benzenesulfonamide]: the pIC50 with HCT116 cells [2] (setting [3]) was 8.89; with HCT116 cells [2] (setting [4]), below 6.00. On the same counts, the results for `N#C/N=C(/NCc1ccc(COc2ccccc2-c2ccccc2)cc1)Nc1ccncc1` [Example R70, 1-{4-[(biphenyl-2-yloxy)methyl]benzyl}-2-cyano-3-pyridin-4-ylguanidine] are 8.96 and below 5.30.

As to `O=C(NCc1cccnc1)Nc1ccc(NS(=O)(=O)c2sccc2Br)cc1` [Example R71, 3-bromo-N-(4-{[(pyridin-3-ylmethyl)carbamoyl]amino}phenyl) thiophene-2-sulfonamide], the pIC50 in the test on HCT116 cells [2] (setting [3]) was 7.88; in the test with HCT116 cells [2] (setting [4]), below 5.30. Regarding `O=C(NCc1cccnc1)Nc1ccc(NS(=O)(=O)c2cc(C(F)(F)F)ccc2F)cc1` [Example R72, 2-fluoro-N-(4-{[(pyridin-3-ylmethyl)carbamoyl]amino}phenyl)-5-(trifluoromethyl)benzenesulfonamide], the pIC50 in the test on HCT116 cells [2] (setting [3]) was 7.82; in the test on HCT116 cells [2] (setting [4]), below 5.30. The matching figures for `O=C(NCc1ccc(NS(=O)(=O)c2cc(C(F)(F)F)ccc2Br)cc1)Nc1ccncc1` [Example R73, 2-bromo-N-(4-{[(pyridin-4-ylcarbamoyl)amino]methyl}phenyl)-5-(trifluoromethyl)benzenesulfonamide]: 9.00 and below 5.30. On the same counts, the results for `O=C(NCc1cccnc1)Nc1ccc(NS(=O)(=O)c2cc(Cl)ccc2Cl)cc1` [Example R74, 2,5-dichloro-N-(4-{[(pyridin-3-ylmethyl)carbamoyl]amino}phenyl)benzene-sulfonamide] are 8.64 and below 5.30.

As to `O=C(NCc1cccnc1)Nc1ccc(NS(=O)(=O)c2ccc(Cl)cc2Cl)cc1` [Example R75, 2,4-dichloro-N-(4-{[(pyridin-3-ylmethyl)carbamoyl]amino}phenyl)benzene-sulfonamide], the pIC50 with HCT116 cells [2] (setting [3]) is 7.52; with HCT116 cells [2] (setting [4]), below 5.30. On the same counts, the results for `Cc1cc(S(=O)(=O)Nc2ccc(NC(=O)NCc3cccnc3)cc2)c(Cl)cc1Cl` [Example R76, 2,4-dichloro-5-methyl-N-(4-{[(pyridin-3-ylmethyl)carbamoyl]amino}phenyl)benzene-sulfonamide] are 8.89 and below 5.30. As to `O=C(NCc1cccnc1)Nc1ccc(OCc2ccccc2-c2ccccc2)cc1` [Example R77, 1-[4-(biphenyl-2-ylmethoxy)phenyl]-3-(pyridin-3-ylmethyl)urea], the pIC50 in the test with HCT116 cells [2] (setting [3]) is 8.77; with HCT116 cells [2] (setting [4]), below 5.30. For the compound `N#C/N=C(/NCCCCNC(=O)COc1ccccc1-c1ccccc1)Nc1ccncc1` [Example R78, 2-(Biphenyl-2-yloxy)-N-(4-{[(Z)-(cyanoamino)(pyridin-4-ylamino)methylidene]amino}butyl)acetamide], the pIC50 in the test with HCT116 cells [2] (setting [3]) is 9.30; in the test on HCT116 cells [2] (setting [4]) it was below 5.30.

With `O=C(NCCCCCCOc1ccc(Cl)cc1)Nc1ccncc1` [Example R79, 1-[6-(4-Chlorophenoxy)hexyl]-3-pyridin-4-ylurea], the pIC50 is 7.05 in the test with HCT116 cells [2] (setting [3]) and below 5.30 with HCT116 cells [2] (setting [4]). The matching figures for `O=C(NCc1cccnc1)Nc1ccc(COc2ccccc2-c2ccsc2)cc1` [Example R80, 1-(Pyridin-3-ylmethyl)-3-(4-{[2-(thiophen-3-yl)phenoxy]methyl}phenyl)urea]: 9.05 and below 5.30.

`O=C(NCc1cccnc1)Nc1ccc(COc2ccccc2-c2ccncc2)cc1` [Example R81, 1-(Pyridin-3-ylmethyl)-3-(4-{[2-(pyridin-4-yl)phenoxy]methyl}phenyl)urea]: the pIC50 in the test on HCT116 cells [2] (setting [3]) is 8.27; in the test with HCT116 cells [2] (setting [4]) it was below 5.30. The matching figures for `O=C(NCc1cccnc1)Nc1ccc(COc2ccccc2-c2cccc(F)c2)cc1` [Example R82, 1-(4-{[(3′-Fluorobiphenyl-2-yl)oxy]methyl}phenyl)-3-(pyridin-3-ylmethyl)urea]: 8.72 and below 5.30. On the same counts, the results for `O=C(NCc1cccnc1)Nc1ccc(COc2ccccc2-c2cccnc2)cc1` [Example R83, 1-(Pyridin-3-ylmethyl)-3-(4-{[2-(pyridin-3-yl)phenoxy]methyl}phenyl)urea] are 8.82 and below 5.30. `CCn1cc(-c2ccccc2OCc2ccc(NC(=O)NCc3cccnc3)cc2)cn1` [Example R84, 1-(4-{[2-(1-Ethyl-1H-pyrazol-4-yl)phenoxy]methyl}phenyl)-3-(pyridin-3-ylmethyl)urea]: the figures for the pIC50 with HCT116 cells [2] (setting [3]) and in the test on HCT116 cells [2] (setting [4]) were 7.97 and below 5.30, respectively. On the same counts, the results for `O=C(NCCCCCOc1ccccc1-c1ccccc1)NCc1cccnc1` [Example R85, 1-[5-(Biphenyl-2-yloxy)pentyl]-3-(pyridin-3-ylmethyl)urea] are 8.89 and below 5.30. Take `O=C(NCc1cccnc1)Nc1ccc(CNc2ccccc2-c2ccccc2)cc1` [Example R86, 1-{4-[(Biphenyl-2-ylamino)methyl]phenyl}-3-(pyridin-3-ylmethyl)urea]: the pIC50 with HCT116 cells [2] (setting [3]) is 9.40; with HCT116 cells [2] (setting [4]), 5.40. On the same counts, the results for `O=C(NCc1cccnc1)Nc1ccc(C2(Oc3ccccc3-c3ccccc3)CC2)cc1` [Example R87, 1-{4-[1-(Biphenyl-2-yloxy)cyclopropyl]phenyl}-3-(pyridin-3-ylmethyl)urea] are 8.96 and 5.52. On the same counts, the results for `O=C(NCc1cccnc1)Nc1ccc(NS(=O)(=O)c2ccccc2-c2ccn[nH]2)cc1` [Example R88, 2-(1H-Pyrazol-5-yl)-N-(4-{[(pyridin-3-ylmethyl)carbamoyl]amino}phenyl)benzene-sulfonamide] are 8.60 and below 5.30. The matching figures for `CCn1cc(-c2ccccc2S(=O)(=O)Nc2ccc(NC(=O)NCc3cccnc3)cc2)cn1` [Example R89, 2-(1-Ethyl-1H-pyrazol-4-yl)-N-(4-{[(pyridin-3-ylmethyl)carbamoyl]amino}phenyl)benzene-sulfonamide]: 7.47 and below 5.30.

On to `O=C(NCc1cccnc1)Nc1ccc(NS(=O)(=O)c2ccccc2-c2ccccc2)nc1` [Example R90, N-(5-{[(Pyridin-3-ylmethyl)carbamoyl]amino}pyridin-2-yl)biphenyl-2-sulfonamide], for which the pIC50 was 7.54 with HCT116 cells [2] (setting [3]) and below 5.30 with HCT116 cells [2] (setting [4]).
